System: E. coli TOP10
Assay: Single-strain growth experiments, intracellular peptide expression
Format: cell-based
Settings: negative control, expressed in E. coli TOP10
Protocol: To assess the antimicrobial activity of single peptides when expressed intracellularly in E. coli TOP10, a monoclonal strain carrying the pBAD plasmid containing a single peptide gene was picked from solid media, incubated overnight, and inoculated into a fresh LB medium containing 0.3% (w/v) L-arabinose to a final OD of 0.01 into 96-well microtiter plate (Greiner). Growth of strains was recorded by measuring OD in a Tecan Infinite 200 PRO (Tecan, Männedorf, CH) for at least 4 h (37°C, 1.5 mm orbital shaking).

HNP-1: inactive peptide HNP-1 expressed as the negative control
activity on intracellular expression: inactive

Reference: article PMC9112550, “Optimization of the antimicrobial peptide Bac7 by deep mutational scanning” (BMC Biology, 2022)
